From US20240277795A1, “INHIBITORS OF CYSTEINE PROTEASES AND METHODS OF USE THEREOF” (Pardes Biosciences, Inc., priority 2021, published 2024)
Where two headings read alike, the source gives them in different places.

Legend:
[1] = target: SARS-COV2 Mpro (Severe acute respiratory syndrome coronavirus 2, UniProt P0DTD1); assay: COVID-19 (nCoV-2019, SARS-CoV2) Mpro enzymatic assay; format: biochemical; settings: read-out: COVID-19 Mpro IC50
Procedure: (§1) Compounds were assayed using standard methods to assess compound activity and IC50. As an exemplary for assessment of the SARS-COV2 Mpro, the C-His6-tagged Mpro (NC_045512) was cloned, expressed in E. coli and purified. The assay buffer contained 20 mM of Tris-HCl (pH 7.3), 100 mM of NaCl, 1 mM of EDTA, 5 mM of TCEP and 0.1% BSA. The final concentrations of the Mpro protein and substrate were 25 nM and 25 μM, respectively, in the Mpro enzymatic assay.
The compounds were added to an assay plate. For 100% inhibition control (HPE, hundred percent effect), 1 μM GC376 was added.
(§2) IC50 values of compounds were calculated with the GraphPad Prism software using the nonlinear regression model of log(inhibitor) vs. response—Variable slope (four parameters). The inhibition activity was calculated using the formula below, IC50 values is calculated using the Inhibition % data.
[formula] • #HEP: Hundred percent effect controls. […] Containing enzyme+substrate, no compound. • Sample: Compound activity testing wells. Containing compound+enzyme+substrate. • BG: Compound background control wells. Containing compound+substrate, no enzyme.

[2] = target: 229E Mpro (Human coronavirus 229E, UniProt P0C6X1); assay: 229E Mpro enzymatic assay; format: biochemical, HCoV 229E
Sequence of 229E Mpro (P0C6X1 2966-3267): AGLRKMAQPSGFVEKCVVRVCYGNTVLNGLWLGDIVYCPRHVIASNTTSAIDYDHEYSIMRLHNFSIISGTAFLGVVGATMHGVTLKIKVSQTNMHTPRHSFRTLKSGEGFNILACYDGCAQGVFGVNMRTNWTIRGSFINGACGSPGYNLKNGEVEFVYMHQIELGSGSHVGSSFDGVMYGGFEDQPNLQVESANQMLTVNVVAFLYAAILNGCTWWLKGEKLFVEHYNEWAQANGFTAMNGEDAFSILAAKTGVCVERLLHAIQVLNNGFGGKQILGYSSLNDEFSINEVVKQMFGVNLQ
Procedure: as §1, with “assay. The Km of the Mpro substrate for the protease was 13.5 μM.” for “assay.”
(§3) The compounds were added to an assay plate. For 100% inhibition control (HPE, hundred percent effect), 1 μM GC376 was added. For no inhibition control (ZPE, zero percent effect), no compound was added.
as §2
(§4) [formula] • #HEP: Hundred percent effect controls. Containing substrate+enzyme+1 μM GC376. • ZPE: Zero percent effective controls. Containing enzyme+substrate, no compound. • Sample: Compound activity testing wells. Containing compound+enzyme+substrate. • BG: Compound background control wells. Containing compound+substrate, no enzyme.

[3] = target: OC43 Mpro (Human coronavirus OC43, UniProt P0C6X6); assay: OC43 Mpro enzymatic assay; format: biochemical, HCoV OC43
Sequence of OC43 Mpro (P0C6X6 3247-3549): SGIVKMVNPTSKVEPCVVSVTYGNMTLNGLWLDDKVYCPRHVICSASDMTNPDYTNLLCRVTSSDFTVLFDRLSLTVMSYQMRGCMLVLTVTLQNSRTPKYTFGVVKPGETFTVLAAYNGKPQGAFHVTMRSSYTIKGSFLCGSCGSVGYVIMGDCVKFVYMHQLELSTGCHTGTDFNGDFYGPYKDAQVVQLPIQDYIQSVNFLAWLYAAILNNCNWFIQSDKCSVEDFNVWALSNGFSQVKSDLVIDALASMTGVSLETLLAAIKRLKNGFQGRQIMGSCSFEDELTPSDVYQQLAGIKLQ
Procedure: as §1, with “assay. The Km of the Mpro substrate for the protease was 13.5 μM.” for “assay.”
as §3, §2, §4

Row | SMILES | IC50 ([1]; Table 3) [nM] | IC50 ([2]; Table 3) [nM] | IC50 ([3]; Table 3) [nM] | IC50 ([1]; Table 5) [nM] | IC50 ([2]; Table 5) [nM] | IC50 ([3]; Table 5) [nM]
1 | CC(C)(C)[C@H](NC(=O)OC1CC(F)(F)C1(F)F)C(=O)N1C[C@H]2[C@@H]([C@H]1C(=O)N[C@H](C#N)C[C@@H]1CC3(CC3)NC1=O)C2(C)C (single isomer, unassigned) [273 Isomer 1] | < 2000 | < 2000 | < 2000 |  |  | 
2 | CC(C)(C)[C@H](NC(=O)OC1CC(F)(F)C1(F)F)C(=O)N1C[C@H]2[C@@H]([C@H]1C(=O)N[C@H](C#N)C[C@@H]1CC3(CC3)NC1=O)C2(C)C (single isomer, unassigned) [273 Isomer 2] | < 2000 | < 2000 | < 2000 |  |  | 
3 | CC(C)(C)[C@H](NC(=O)C1(CF)CC1(F)F)C(=O)N1C[C@H]2[C@@H]([C@H]1C(=O)N[C@H](C#N)C[C@@H]1CC3(CC3)NC1=O)C2(C)C (single isomer, unassigned) [292 Isomer 1] | < 2000 | < 2000 | < 2000 |  |  | 
4 | CC(C)(C)[C@H](NC(=O)C1(CF)CC1(F)F)C(=O)N1C[C@H]2[C@@H]([C@H]1C(=O)N[C@H](C#N)C[C@@H]1CC3(CC3)NC1=O)C2(C)C (single isomer, unassigned) [292 Isomer 2] | < 2000 | < 2000 | < 2000 |  |  | 
5 | CC1(C)[C@@H]2[C@@H](C(=O)N[C@H](C#N)C[C@@H]3CC4(CC4)NC3=O)N(C(=O)C(NC(=O)C(F)(F)F)C3CCC3)C[C@@H]21 (single isomer, unassigned) [372 Isomer 1] | < 2000 | < 2000 | < 2000 |  |  | 
6 | CC1(C)[C@@H]2[C@@H](C(=O)N[C@H](C#N)C[C@@H]3CC4(CC4)NC3=O)N(C(=O)C(NC(=O)C(F)(F)F)C3CCC3)C[C@@H]21 (single isomer, unassigned) [372 Isomer 2] | < 2000 | < 2000 | < 2000 |  |  | 
7 | COC(C)(C)[C@H](NC(=O)C(F)(F)F)C(=O)N1C[C@H]2[C@@H]([C@H]1C(=O)N[C@H](C#N)C[C@@H]1CC3(CC3)NC1=O)C2(C)C (single isomer, unassigned) [Compound 284] |  |  |  | < 2000 | 10000 to 30000 | < 2000
8 | C[C@@H](OC1CC1)[C@H](NC(=O)C(F)(F)F)C(=O)N1C[C@H]2[C@@H]([C@H]1C(=O)N[C@H](C#N)C[C@@H]1CC(C)(C)NC1=O)C2(C)C (single isomer, unassigned) [Compound 298] |  |  |  | < 2000 | < 2000 | < 2000
9 | C[C@@H](OC1CC1)[C@@H](NC(=O)C(F)(F)F)C(=O)N1C[C@H]2[C@@H]([C@H]1C(=O)N[C@H](C#N)C[C@@H]1CC(C)(C)NC1=O)C2(C)C (single isomer, unassigned) [Compound 298a] |  |  |  | < 2000 | < 2000 | < 2000
10 | C[C@@H](OC1(C)CC1)[C@H](NC(=O)C(F)(F)F)C(=O)N1C[C@H]2[C@@H]([C@H]1C(=O)N[C@H](C#N)C[C@@H]1CC(C)(C)NC1=O)C2(C)C (single isomer, unassigned) [Compound 299] | < 2000 | < 2000 | < 2000 |  | < 2000 | < 2000
11 | C[C@@H](OC1(C)CC1)[C@H](NC(=O)C(F)(F)F)C(=O)N1C[C@H]2[C@@H](C1C(=O)N[C@H](C#N)C[C@@H]1CC(C)(C)NC1=O)C2(C)C (single isomer, unassigned) [Compound 299a] |  |  |  | < 2000 | < 2000 | < 2000
12 | CN(C(=O)[C@@H](NC(=O)c1cnccn1)C(C)(C)C)[C@@H](CC1CC1)C(=O)N[C@H](C#N)C[C@@H]1CCCNC1=O [Compound 102, N-[(1S)-1-[[(1S)-2-[[(1S)-1-cyano-2-[(3S)-2-oxo-3-piperidyl]ethyl]amino]-1-(cyclopropylmethyl)-2-oxo-ethyl]-methyl-carbamoyl]-2,2-dimethyl-propyl]pyrazine-2-carboxamide] | > 30000 | 2000 to 10000 | 10000 to 30000 |  |  | 
13 | N#C[C@H](C[C@@H]1CCNC1=O)NC(=O)[C@H](CC1CC1)NC(=O)[C@H](Cc1ccc(F)cc1)NC(=O)c1cnccn1 [Compound 125] | 2000 to 10000 | < 2000 | < 2000 |  |  | 
14 | C[C@@H](OC(C)(C)C)[C@H](NC(=O)C(F)(F)F)C(=O)N1C[C@H]2[C@@H]([C@H]1C(=O)N[C@H](C#N)C[C@@H]1CC3(CC3)NC1=O)C2(C)C [Compound 137, (1R,2S,5S)-3-[(2S,3R)-3-tert-butoxy-2-[(2,2,2-trifluoroacetyl)amino]butanoyl]-N-[(1S)-1-cyano-2-[(6R)-5-oxo-4-azaspiro[2.4]heptan-6-yl]ethyl]-6,6-dimethyl-3-azabicyclo[3.1.0]hexane-2-carboxamide] |  |  |  | < 2000 | < 2000 | < 2000
15 | C[C@H](OC(C)(C)C)[C@H](NC(=O)C(F)(F)F)C(=O)N1C[C@H]2[C@@H]([C@H]1C(=O)N[C@H](C#N)C[C@@H]1CC3(CC3)NC1=O)C2(C)C [Compound 138, (1R,2S,5S)-3-[(2S,3S)-3-tert-butoxy-2-[(2,2,2-trifluoroacetyl)amino]butanoyl]-N-[(1S)-1-cyano-2-[(6R)-5-oxo-4-azaspiro[2.4]heptan-6-yl]ethyl]-6,6-dimethyl-3-azabicyclo[3.1.0]hexane-2-carboxamide] |  |  |  | < 2000 | < 2000 | < 2000
16 | COC(C)(C)[C@H](NC(=O)C(F)(F)F)C(=O)N1C[C@H]2[C@@H]([C@H]1C(=O)N[C@H](C#N)C[C@@H]1CC3(CC3)NC1=O)C2(C)C [Compound 139, (1R,2S,5S)—N—((S)-1-cyan-2-((R)-5-oxo-4-azaspiro[2.4]heptan-6-yl)ethyl)-3-((S)-3-methoxy-3-methyl-2-(2,2,2-trifluoroacetamido)butanoyl)-6,6-dimethyl-3-azabicyclo[3.1.0]hexane-2-carboxamide] |  |  |  | < 2000 | < 2000 | < 2000
17 | CC(C)(C)[C@H](N)C(=O)N1C[C@H]2[C@@H]([C@H]1C(=O)N[C@H](C#N)C[C@@H]1CC3(CC3)NC1=O)C2(C)C [Compound 235, (1R,2S,5S)-3-((S)-2-amino-3,3-dimethylbutanoyl)-N—((S)-1-cyano-2-((R)-5-oxo-4-azaspiro[2.4]heptan-6-yl)ethyl)-6,6-dimethyl-3-azabicyclo[3.1.0]hexane-2-carboxamide] | < 2000 | < 2000 | < 2000 |  |  | 
18 | C[C@@H](OC(C)(C)C)[C@H](NC(=O)C(F)(F)F)C(=O)N1C[C@H]2[C@@H]([C@H]1C(=O)N[C@H](C#N)C[C@@H]1CC(C)(C)NC1=O)C2(C)C [Compound 285, (1RSS)-3-[(2S,3R)-3-tert-butoxy-2-[(2,2,2-trifluoroacetyl)amino]butanoyl]-N-[(1S)-1-cyano-2-[(3R)-5,5-dimethyl-2-oxo-pyrrolidin-3-yl]ethyl]-6,6-dimethyl-3-azabicyclo[3.1.0]hexane-2-carboxamide] | < 2000 | < 2000 | < 2000 |  |  | 
19 | CO[C@H](C)[C@H](NC(=O)C(F)(F)F)C(=O)N1C[C@H]2[C@@H]([C@H]1C(=O)N[C@H](C#N)C[C@@H]1CC(C)(C)NC1=O)C2(C)C [Compound 290, (1R,2S,5S)-N—((S)-1-cyano-2-((R)-5,5-dimethyl-2-oxopyrrolidin-3-yl)ethyl)-3-((2S,3R)-3-methoxy-2-(2,2,2-trifluoroacetamido)butanoyl)-6,6-dimethyl-3-azabicyclo[3.1.0]hexane-2-carboxamide] |  |  |  | < 2000 | < 2000 | < 2000
